Laboratory results from US20230391871A1, “MONOAMINE OXIDASE BLOCKADE THERAPY FOR TREATING CANCER THROUGH REGULATING TUMOR ASSOCIATED MACROPHAGES (TAMS)” (THE REGENTS OF THE UNIVERSITY OF CALIFORNIA, priority 2020, published 2023).
Read-outs that look alike come from different tables or passages of the source.

Experiments:
[1] = tested on: wildtype BMDMs (bone marrow-derived macrophages); assay: In vitro WT BMDM IL-4/IL-13-induced polarization culture with MAOI treatment; assay type: cell-based, mouse; conditions: IL-4/IL-13-stimulated WT BMDMs, 24 h
Description: (§1) (a) Experimental design. Wildtype BMDMs were stimulated with IL-4/IL-13 with or without MAOI treatment. MAOIs (monoamine oxidase inhibitors) studied were phenelzine (Phe: 20 μM), clorgyline (Clo: 20 μM), moclobemide (Moc: 200 μM), and pirlindole (Pir: 20 μM). NT, no MAOI treatment. (b) FACS analyses of ROS levels in BMDMs. (c) FACS analyses of CD206 expression on BMDMs. (d,e) QPCR analyses of Chi313 (d) and Arg1 (e) mRNA expression in BMDMs. f-j, Studying the TAM-related cancer immunotherapy potential of MAOI treatment in a B16-OVA melanoma syngeneic mouse tumour model (n=7-8). (f) Experimental design. B6 wildtype mice were treated with clodronate liposomes (Clod) to serve as TAM-depleted experimental mice, or treated with vehicle liposomes (Veh) to serve as TAM-intact control mice. Phe, phenelzine treatment: NT, no phenelzine treatment. (g) Tumour growth. (h) Tumour volume at day 18. (i) FACS analyses of CD206 expression on TAMs of TAM-intact experimental mice. (j) FACS analyses of intracellular Granzyme B production in tumour-infiltrating CD8^+ T cells of all experimental mice. k-o, Studying the cancer therapy potential of MAOI treatment in combination with anti-PD-1 treatment in the B16-OVA melanoma and MC38 colon cancer syngeneic mouse tumour models (n=5). (k) Experimental design. Tumour-bearing mice were treated with anti-PD-1 antibody (aPD-1) or isotype control (Iso), together with or without phenelzine (Phe) treatment. NT, no Phe treatment. (l) B16-OVA tumour growth. (m) B16-OVA tumour volume at day 18. (n) MC38 tumour growth. (o) MC38 tumour volume at day 27. Representative of 3 experiments. All data are presented as the mean±SEM. ns, not significant, *P<0.05, **P<0.01, and ***P<0.001, by I-way ANOVA (b-e, h, j, m, o) or by Student's t test (i).
To generate BMDMs, BM cells were collected from femurs and tibias of Maoa WT mice and Maoa KO mice, and were cultured in C10 medium containing with 20% of L929-conditional medium in a 10-cm dish (2×10^6 cells per ml: 12 ml per dish) for 6 days. At day 6, the resulting BMDMs were collected and reseeded in a 6-well plate (1×10^6 cells per ml: 2 ml per well) in C10 medium for 24 hours, in the presence or absence of recombinant murine IL-4 (10 ng/ml) (Peprotech, 200-04) and IL-13 (10 ng/ml) (Peprotech, 200-13) to induce BMDM immunosuppressive polarization.
In some experiments, MAOIs were added to the Maoa WT BMDM polarization culture 30 minutes prior to adding recombinant murine IL-4 and IL-13, to block MAO-A activity during BMDM polarization. MAOIs studied were phenelzine (Phe, 20 μM) (Sigma-Aldrich), clorgyline (Clo, 20 μM) (Sigma-Aldrich), moclobemide (Moc, 200 μM) (Sigma-Aldrich), and pirlindole (Pir, 20 μM) (R&D Systems). At 24 hours after IL-4/IL-13 stimulation, BMDMs were collected for analysis.
Cells were stained with surface marker antibodies, washed with PBS, then resuspended in pre-warmed PBS (1×10^6 cells/ml/tube) containing 1 μM CM-H2DCFDA (Thermo Fisher Scientific, C6827). After 15 minutes incubation at room temperature, cells were immediately washed with cold PBS followed by flow cytometry analysis. ROS levels were measured by oxidation of the CM-H2DCFDA probes that can be read out as the fluorescence intensity at the FITC/488 channel of a flow cytometer. Single cell RNA sequencing (scRNAseq) scRNASeq was used to analyze the gene expression profiles of TIIs. B16-OVA tumours were harvested from Maoa WT and Maoa KO mice to prepare TII suspensions (10 tumours were combined for each group). TII suspensions were then sorted using a FACSAria II flow cytometer to purify immune cells (gated as DAPI-CD45.2^+ cells). Sorted TIIs were immediately delivered to the Technology Center for Genomics & Bioinformatics (TCGB) facility at UCLA for library construction and sequencing.

MC38 colon cancer = tested on: MC38 colon cancer
Description: as §1, with “Tumour-bearing mice were treated with anti-PD-1 antibody (aPD-1) or isotype control (Iso), together with or without phenelzine (Phe) treatment. NT, no Phe treatment. (l) B16-OVA tumour growth. (m) B16-OVA tumour volume at day 18. (n) MC38 tumour growth. (o) MC38 tumour volume at day 27. Representative of 3 experiments. All data are presented as the mean±SEM. ns, not significant, *P<0.05, **P<0.01, and ***P<0.001, by I-way ANOVA (b-e, h, j, m, o) or by Student's t test (i).” left out
Tumour-bearing mice treated with vehicle liposomes (Veh) were included as a control. […] FACS quantifications of TAMs (gated as CD45.2^+CD11b^+Ly6G^−Ly6C^−/lowF4/80^+ cells of total TIIs) are presented (n=7-8). b-f, Studying B16-OVA and MC38 tumour growth in B6 wildtype mice with or without phenelzine treatment (Phe or NT). […]
B16-OVA melanoma cells (1×10^6 per animal) or MC38 colon cancer cells (5×10^5 per animal) were subcutaneously (s.c.) injected into experimental mice to form solid tumours. […] During an experiment, tumour growth was monitored twice per week by measuring tumour size using a Fisherbrand™ Traceable™ digital caliper (Thermo Fisher Scientific): tumour volumes were calculated by formula 1/2×L×W^2.

NNCCc1ccccc1 [phenelzine]
ROS levels in BMDMs (FACS) ([1]; MAOI 20 μM added 30 min before cytokines): efficiently reduced
Arg1 mRNA expression in BMDMs (QPCR) ([1]; MAOI 20 μM): decreased expression
CD206 expression on BMDMs (FACS) ([1]; MAOI 20 μM): decreased expression
Chi313 mRNA expression in BMDMs (QPCR) ([1]; MAOI 20 μM): decreased expression
immunosuppressive polarization of BMDMs ([1]; MAOI 20 μM): suppressed
progression of pre-established MC38 solid tumours (MC38 colon cancer; B6 wildtype mice, phenelzine vs no treatment (FIG. 11e,f)): effectively suppressed
growth of MC38 tumours in immunodeficient NSG mice (MC38 colon cancer; NSG mice, phenelzine vs no treatment): did not suppress
progression of pre-established MC38 solid tumours (MC38 colon cancer; combination study with anti-PD-1 antibody or isotype control (FIG. 5n,o), level comparable to anti-PD-1 alone): significantly suppressed
